Assays:
Format in all cases: cell-based
human TLR7 = target: T1, human TLR7 (Homo sapiens, UniProt Q9NYK1); assay: TLR7 inhibition reporter assay (HEK-Blue cells, SEAP reporter, gardiquimod stimulation); conditions: HEK-Blue cells overexpressing human TLR7, SEAP reporter, gardiquimod 7.5 μM
T1 construct: host or cells: HEK-Blue cells
T1 sequence (Q9NYK1 27-1049): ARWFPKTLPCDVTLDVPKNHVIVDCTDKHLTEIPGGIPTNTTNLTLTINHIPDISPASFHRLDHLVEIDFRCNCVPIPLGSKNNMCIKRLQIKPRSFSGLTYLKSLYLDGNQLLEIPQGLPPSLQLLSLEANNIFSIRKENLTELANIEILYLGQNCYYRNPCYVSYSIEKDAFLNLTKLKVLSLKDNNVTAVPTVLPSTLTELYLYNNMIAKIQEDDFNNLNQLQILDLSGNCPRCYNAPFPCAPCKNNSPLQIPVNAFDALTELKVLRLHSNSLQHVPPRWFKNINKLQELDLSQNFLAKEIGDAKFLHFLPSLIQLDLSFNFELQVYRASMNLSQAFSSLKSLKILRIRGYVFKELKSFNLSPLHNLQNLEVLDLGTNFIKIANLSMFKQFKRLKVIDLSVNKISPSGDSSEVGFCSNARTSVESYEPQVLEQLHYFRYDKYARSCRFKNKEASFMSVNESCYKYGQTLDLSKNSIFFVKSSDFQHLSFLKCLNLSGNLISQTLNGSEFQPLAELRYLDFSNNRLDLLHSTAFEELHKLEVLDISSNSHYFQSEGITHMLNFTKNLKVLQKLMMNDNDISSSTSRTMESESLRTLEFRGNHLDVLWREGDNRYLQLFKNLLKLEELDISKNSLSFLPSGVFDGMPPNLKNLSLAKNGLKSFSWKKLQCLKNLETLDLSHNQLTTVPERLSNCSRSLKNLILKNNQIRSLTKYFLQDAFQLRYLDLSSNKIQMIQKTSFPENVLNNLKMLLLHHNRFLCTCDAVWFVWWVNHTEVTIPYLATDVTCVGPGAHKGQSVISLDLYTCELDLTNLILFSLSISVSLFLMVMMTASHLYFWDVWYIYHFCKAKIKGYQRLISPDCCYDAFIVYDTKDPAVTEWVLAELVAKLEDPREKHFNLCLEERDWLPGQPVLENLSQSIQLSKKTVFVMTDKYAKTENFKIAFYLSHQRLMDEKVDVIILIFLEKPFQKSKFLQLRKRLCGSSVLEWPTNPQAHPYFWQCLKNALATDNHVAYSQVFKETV
Method in brief: (§1)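 Dose range 0.05 nM–50 μM; 30 min preincubation, RT. Agonists: TLR7 gardiquimod 7.5 μM, TLR8 R848 15.9 μM, TLR9 ODN2006 5 nM. 22 h, 37 °C, 5% CO2. SEAP (IFN-β minimal promoter with NF-κB/AP-1 sites) via colorimetric detection medium; % inhibition vs agonist+DMSO and reference-inhibitor wells.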

human TLR8 = target: T2, human TLR8 (Homo sapiens, UniProt Q9NR97); assay: TLR8 inhibition reporter assay (HEK-Blue cells, SEAP reporter, R848 stimulation); conditions: HEK-Blue cells overexpressing human TLR8, SEAP reporter, R848 15.9 μM
T2 construct: host or cells: HEK-Blue cells
T2 sequence (Q9NR97 27-1041): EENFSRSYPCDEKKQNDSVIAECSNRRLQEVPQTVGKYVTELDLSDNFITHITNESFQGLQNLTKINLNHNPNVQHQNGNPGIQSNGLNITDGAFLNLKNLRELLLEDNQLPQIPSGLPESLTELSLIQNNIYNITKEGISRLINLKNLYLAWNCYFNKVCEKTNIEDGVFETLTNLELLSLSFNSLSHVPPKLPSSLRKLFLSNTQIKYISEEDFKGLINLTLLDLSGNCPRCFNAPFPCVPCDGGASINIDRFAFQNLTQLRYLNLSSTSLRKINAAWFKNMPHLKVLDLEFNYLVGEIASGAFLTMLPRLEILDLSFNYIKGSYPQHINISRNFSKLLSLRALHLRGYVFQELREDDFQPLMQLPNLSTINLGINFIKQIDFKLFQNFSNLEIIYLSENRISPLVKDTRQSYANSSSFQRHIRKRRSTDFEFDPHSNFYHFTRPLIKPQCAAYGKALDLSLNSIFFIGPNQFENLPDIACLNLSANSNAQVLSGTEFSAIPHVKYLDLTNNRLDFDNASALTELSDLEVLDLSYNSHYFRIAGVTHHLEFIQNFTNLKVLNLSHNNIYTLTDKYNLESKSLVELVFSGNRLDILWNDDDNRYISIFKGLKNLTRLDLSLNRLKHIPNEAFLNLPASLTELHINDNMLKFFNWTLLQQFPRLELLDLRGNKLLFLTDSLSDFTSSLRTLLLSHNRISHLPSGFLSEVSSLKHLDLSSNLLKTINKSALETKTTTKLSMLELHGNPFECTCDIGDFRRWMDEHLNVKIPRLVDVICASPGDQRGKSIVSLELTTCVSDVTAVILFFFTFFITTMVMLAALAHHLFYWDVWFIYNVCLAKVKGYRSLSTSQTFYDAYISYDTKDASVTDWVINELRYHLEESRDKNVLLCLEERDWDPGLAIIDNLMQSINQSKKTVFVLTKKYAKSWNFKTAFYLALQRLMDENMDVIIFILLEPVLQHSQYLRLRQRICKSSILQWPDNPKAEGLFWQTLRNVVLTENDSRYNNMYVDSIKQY
Method in brief: as §1

human TLR9 = target: T3, human TLR9 (Homo sapiens, UniProt Q9NR96); assay: TLR9 inhibition reporter assay (HEK-Blue cells, SEAP reporter, ODN2006 stimulation); conditions: HEK-Blue cells overexpressing human TLR9, SEAP reporter, ODN2006 5 nM
T3 construct: host or cells: HEK-Blue cells
T3 sequence (Q9NR96 26-1032): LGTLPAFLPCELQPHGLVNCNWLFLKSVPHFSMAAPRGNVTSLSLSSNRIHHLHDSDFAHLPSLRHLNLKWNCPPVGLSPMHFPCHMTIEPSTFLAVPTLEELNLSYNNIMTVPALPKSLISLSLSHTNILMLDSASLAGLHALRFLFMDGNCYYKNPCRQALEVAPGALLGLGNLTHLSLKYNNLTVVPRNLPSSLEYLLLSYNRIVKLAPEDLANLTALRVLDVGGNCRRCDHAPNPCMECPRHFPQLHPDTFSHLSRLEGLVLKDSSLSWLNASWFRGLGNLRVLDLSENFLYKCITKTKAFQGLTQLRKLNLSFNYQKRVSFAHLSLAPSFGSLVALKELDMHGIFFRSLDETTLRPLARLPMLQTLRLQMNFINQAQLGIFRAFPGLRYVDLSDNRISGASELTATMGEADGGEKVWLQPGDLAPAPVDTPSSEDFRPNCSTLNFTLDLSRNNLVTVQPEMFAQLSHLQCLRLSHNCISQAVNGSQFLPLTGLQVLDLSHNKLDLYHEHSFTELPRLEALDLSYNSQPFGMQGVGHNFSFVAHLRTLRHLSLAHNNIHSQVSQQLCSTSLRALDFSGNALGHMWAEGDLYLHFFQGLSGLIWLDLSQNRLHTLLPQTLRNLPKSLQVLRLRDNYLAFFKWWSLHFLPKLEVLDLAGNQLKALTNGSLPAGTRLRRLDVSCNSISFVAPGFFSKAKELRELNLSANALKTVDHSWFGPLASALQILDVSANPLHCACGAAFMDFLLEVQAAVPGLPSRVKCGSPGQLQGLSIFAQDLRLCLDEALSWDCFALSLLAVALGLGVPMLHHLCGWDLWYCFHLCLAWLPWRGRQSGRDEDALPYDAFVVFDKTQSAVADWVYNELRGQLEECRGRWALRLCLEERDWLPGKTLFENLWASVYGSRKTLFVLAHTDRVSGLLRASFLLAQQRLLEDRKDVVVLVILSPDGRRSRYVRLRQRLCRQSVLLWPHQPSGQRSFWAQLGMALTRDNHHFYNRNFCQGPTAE
Method in brief: as §1

| SMILES | IC50 (human TLR7) [nM] | IC50 (human TLR8) [nM] | IC50 (human TLR9) [nM] |
| --- | --- | --- | --- |
| COc1cc(-c2[nH]c3ccc(C4CCC(N5CC[C@H](N(C)C)C5)CC4)cc3c2C(C)C)cn2ncnc12 (stereo partly drawn) [Example 32] | 0.14 | 0.16 | 170 |
| COc1cc(-c2[nH]c3ccc(C4CCCN(C5COC5)C4)cc3c2C(C)C)cn2ncnc12 (stereo not drawn) [Example 240] | 5 | 4.2 | 11600 |
| COc1cc(-c2[nH]c3ccc(C4CCCN(C5COC5)C4)cc3c2C(C)C)cn2ncnc12 (stereo not drawn) [Example 237] | 15 | 38 | 21200 |
| Cc1c(-c2[nH]c3ccc(C4CCC(N5CCOCC5)CC4)cc3c2C(C)C)cn2ncnc2c1C (single isomer, unassigned) [Example 93] | 3 | 3.8 | 3800 |
| CCN(C)C1CCC(c2ccc3[nH]c(-c4cn5ncnc5c(C)c4C)c(C(C)C)c3c2)CC1 (stereo not drawn) [Example 88] | 2 | 4.7 | 1980 |
| Cc1cc(-c2[nH]c3ccc(C4CCCN(C(=O)C5C(C)(C)C5(C)C)C4)cc3c2C(C)C)cc(C)n1 (stereo not drawn) [Example 198] | 384 | 1100 | 23800 |
| CCN(C)C1CCC(c2ccc3[nH]c(-c4cn5ncnc5c(C)c4C)c(C(C)C)c3c2)CC1 (stereo not drawn) [Example 87] | 0.32 | 0.63 | 1910 |
| COc1cc(-c2[nH]c3ccc(C4CCC(NC5CC5)CC4)cc3c2C(C)C)cn2ncnc12 (stereo not drawn) [Example 11] | 2 | 3.7 | 2070 |
| COc1cc(-c2[nH]c3ccc(C4CCC(N5CC[C@H](N(C)C)C5)CC4)cc3c2C(C)C)cn2ncnc12 (stereo partly drawn) [Example 33] | 2 | 3.4 | 491 |
| COc1cc(-c2[nH]c3ccc(C4CCCNC4)cc3c2C(C)C)cn2ncnc12 (single isomer, unassigned) [Example 182] | 1 | 5.3 | 2370 |

Other lines, results leading:

| IC50 (human TLR7) [nM] | IC50 (human TLR8) [nM] | IC50 (human TLR9) [nM] | SMILES |
| --- | --- | --- | --- |
| 11 | 17 | 6780 | Cc1c(-c2[nH]c3ccc(CC4CCCN4C4CCOCC4)cc3c2C(C)C)cn2cnnc2c1C (stereo not drawn) [Example 429] |
| 3 | 11 | 10800 | Cc1c(-c2[nH]c3ccc(CC4CN(C(=O)CN(C)C)C4)cc3c2C(C)C)cn2ncnc2c1C [Example 436] |
| 4 | 37 | 7020 | Cc1c(-c2[nH]c3ccc(C4CC5CN(C(=O)CN(C)C)CC5C4)cc3c2C(C)C)cn2cnnc2c1C (stereo not drawn) [Example 521] |
| 1 | 0.6 | 4450 | Cc1c(-c2[nH]c3ccc(C4CC(NCC(=O)N(C)C)C4)cc3c2C(C)C)cn2ncnc2c1C (stereo not drawn) [Example 566] |
| 14 | 48 | 20400 | Cc1cc(-c2[nH]c3ccc(C4CN(CC(C)(C)O)C(C)(C)CO4)cc3c2C(C)C)cn2ncnc12 (stereo not drawn) [Example 385] |
| 107 | 16 | 742 | CNCCN1CCCC(c2ccc3[nH]c(-c4ccc(OC)c(OC)c4)c(C(C)C)c3c2)C1 (stereo not drawn) [Example 254, 2-(3-(2-(3,4-dimethoxyphenyl)-3-isopropyl-1H-indol-5-yl)piperidin-1-yl)-N-methylethanamine] |
| 45 | 5.8 | 10500 | COCCN1CC(c2ccc3[nH]c(-c4cn(C)c(=O)c(C)c4C)c(C(C)C)c3c2)C1 [Example 487] |
| 4 | 11 | 3320 | Cc1cc(-c2[nH]c3ccc(C4CN(CC(=O)N(C)C)C4)cc3c2C(C)C)cn2ncnc12 [Example 261] |
| 6 | 127 | 2510 | Cc1c(-c2[nH]c3ccc(C4CC5CNCC5C4)cc3c2C(C)C)cn2cnnc2c1C (stereo not drawn) [Example 519] |
| 4010 | 14 | 1140 | CCc1c(-c2ccnc(C)c2)[nH]c2ccc(CNC(=O)C3CC4(CCNCC4)C3)cc12 [Example 447] |
| 3 | 16 | 1720 | CNCC(=O)N1CCOC(c2ccc3[nH]c(-c4cc(OC)c5ncnn5c4)c(C(C)C)c3c2)C1 (stereo not drawn) [Example 342] |
| 0.55 | 2.9 | 2810 | COc1cc(-c2[nH]c3ccc(C4CC(N(C)C(=O)CN(C)C)C4)cc3c2C(C)C)cn2ncnc12 (stereo not drawn) [Example 585] |
| 29 | 21 | 36800 | CNC(=O)CN1CCOC(c2ccc3[nH]c(-c4cc(C)nc(C)c4)c(C(C)C)c3c2)C1 (stereo not drawn) [Example 325] |
| 5 | 1.4 | 28900 | Cc1cc(-c2[nH]c3ccc(C4CN(CC(C)(C)O)CCO4)cc3c2C(C)C)cn2ncnc12 (stereo not drawn) [Example 355, 1-(2-(3-isopropyl-2-(8-methyl-[1,2,4]triazolo[1,5-a]pyridin-6-yl)-1H-indol-5-yl)morpholino)-2-methylpropan-2-ol] |
| 109 | 27 | 32800 | Cc1c(-c2[nH]c3ccc(C4CN(C5CCOCC5)C4)cc3c2C(C)C)cn(C)c(=O)c1C [Example 481] |
